According to patent publication US6737383B1, “Herbicidal oxadiazolidines” (priority 1999, dated 2004):

Columns and labels:
[1] = system: cocklebur; assay: Test B pre/postemergence cocklebur; type: in vivo, Xanthium strumarium
In short: (§1)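 Response is a visual 0-to-10 score relative to untreated plants, where 0 means no effect and 10 means complete control, taken twelve to sixteen days after application. Treatments went onto soil at planting and onto foliage of 1- to 4-leaf plants, using a surfactant-containing non-phytotoxic solvent.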

[2] = system: soybean; assay: Test B pre/postemergence soybean; type: in vivo, Glycine max
In short: as §1

[3] = system: pigweed; assay: Test B pre/postemergence pigweed; type: in vivo, Amaranthus retroflexus
In short: as §1

[4] = system: morningglory; assay: Test B pre/postemergence morningglory; type: in vivo, Ipomoea hederacea
In short: as §1

[5] = Postemergence, Rate 250 g/ha, scale 0 to 10
[6] = Postemergence, Rate 500 g/ha, scale of 0 to 10 where 0 is no effect and 10 is complete control
[7] = Preemergence, Rate 62 g/ha, scale of 0 to 10 where 0 is no effect and 10 is complete control
[8] = Preemergence, Rate 125 g/ha, scale of 0 to 10 where 0 is no effect and 10 is complete control
[9] = Preemergence, Rate 250 g/ha, scale 0 to 10, 0 is no effect, 10 is complete control
[10] = Preemergence, Rate 500 g/ha, scale 0 to 10, 0 is no effect, 10 is complete control
[11] = Rate 62 g/ha, Postemergence, scale 0 to 10 (0 no effect, 10 complete control)
[12] = Rate 125 g/ha, Postemergence, scale 0 to 10, 0 is no effect, 10 is complete control
[13] = Postemergence, Rate 62 g/ha, scale of 0 to 10, 0 is no effect, 10 is complete control
[14] = Postemergence, Rate 125 g/ha, scale 0 to 10, 0 is no effect, 10 is complete control
[15] = Postemergence, Rate 500 g/ha, scale 0 to 10, 0 is no effect, 10 is complete control
[16] = Preemergence, Rate 125 g/ha, scale 0 to 10, 0 is no effect, 10 is complete control
[17] = Preemergence, Rate 500 g/ha, scale of 0 to 10 where 0 is no effect and 10 is complete control
[18] = Rate 250 g/ha, Postemergence, scale of 0 to 10 where 0 is no effect and 10 is complete control
[19] = Preemergence, Rate 62 g/ha, scale 0 to 10 (0 no effect, 10 complete control)

## CC(C)N(C(=O)n1oc(=O)n(COC(=O)C(C)(C)C)c1=O)c1ccc(F)cc1 [Compound 462]
[1]; [5]
  Cocklebur plant response rating: 0
[1]; [6]
  Cocklebur plant response rating: 0
[1]; [7]
  Plant response rating, Cocklebur: 0
[1]; [8]
  Plant response rating, Cocklebur: 0
[1]; [9]
  Cocklebur plant response rating: 0
[1]; [10]
  Cocklebur plant response rating: 0
[1]; [11]
  Cocklebur plant response rating: 0
[1]; [12]
  Cocklebur plant response rating: 0
[2]; [7]
  Plant response rating, Soybean: 0
[2]; [8]
  Plant response rating, Soybean: 0
[2]; [9]
  Soybean plant response rating: 0
[2]; [10]
  Soybean plant response rating: 0
[2]; [11]
  Soybean plant response rating: 0
[2]; [12]
  Soybean plant response rating: 1
[3]; [5]
  Redroot pigweed plant response rating: 0
[3]; [7]
  Plant response rating, Redroot pigweed: 0
[3]; [8]
  Plant response rating, Redroot pigweed: 0
[3]; [9]
  Redroot pigweed plant response rating: 0
[3]; [10]
  Redroot pigweed plant response rating: 0
[3]; [11]
  Redroot pigweed plant response rating: 0
[3]; [12]
  Redroot pigweed plant response rating: 0
[4]; [5]
  Morningglory plant response rating: 0
[4]; [7]
  Plant response rating, Morningglory: 0
[4]; [8]
  Plant response rating, Morningglory: 0
[4]; [9]
  Morningglory plant response rating: 0
[4]; [10]
  Morningglory plant response rating: 0
[4]; [11]
  Morningglory plant response rating: 0
[4]; [12]
  Morningglory plant response rating: 0

## COC(OC)C(C)n1c(=O)on(C(=O)N(c2ccc(F)cc2)C(C)C)c1=O (stereo not shown) [Compound 471]
[1]; [5]
  Cocklebur plant response rating: 0
[1]; [6]
  Cocklebur plant response rating: 0
[1]; [7]
  Plant response rating, Cocklebur: 0
[1]; [9]
  Cocklebur plant response rating: 0
[1]; [10]
  Cocklebur plant response rating: 0
[1]; [11]
  Cocklebur plant response rating: 0
[1]; [12]
  Cocklebur plant response rating: 0
[2]; [5]
  Soybean plant response rating: 3
[2]; [7]
  Plant response rating, Soybean: 0
[2]; [8]
  Plant response rating, Soybean: 0
[2]; [9]
  Soybean plant response rating: 0
[2]; [10]
  Soybean plant response rating: 0
[2]; [11]
  Soybean plant response rating: 2
[2]; [12]
  Soybean plant response rating: 2
[3]; [5]
  Redroot pigweed plant response rating: 2
[3]; [7]
  Plant response rating, Redroot pigweed: 10
[3]; [8]
  Plant response rating, Redroot pigweed: 10
[3]; [9]
  Redroot pigweed plant response rating: 10
[3]; [10]
  Redroot pigweed plant response rating: 10
[3]; [11]
  Redroot pigweed plant response rating: 0
[3]; [12]
  Redroot pigweed plant response rating: 0
[4]; [5]
  Morningglory plant response rating: 4
[4]; [7]
  Plant response rating, Morningglory: 0
[4]; [8]
  Plant response rating, Morningglory: 0
[4]; [9]
  Morningglory plant response rating: 0
[4]; [10]
  Morningglory plant response rating: 0
[4]; [11]
  Morningglory plant response rating: 3
[4]; [12]
  Morningglory plant response rating: 3

## CC(C)N(C(=O)n1oc(=O)n(CCC2OCCCO2)c1=O)c1ccc(Cl)cc1 [Compound 532]
[1]; [13]
  Cocklebur plant response rating: 0
[1]; [14]
  Cocklebur plant response rating: 0
[1]; [15]
  Plant response rating, Cocklebur: 4
[1]; [7]
  Plant response rating, Cocklebur: 0
[1]; [16]
  Cocklebur plant response rating: 0
[1]; Preemergence, Rate 250 g/ha
  Cocklebur plant response rating (0 to 10 scale): 0
[1]; [17]
  Cocklebur plant response rating: 0
[1]; [18]
  Plant response rating, Cocklebur: 2
[2]; [13]
  Soybean plant response rating: 0
[2]; [14]
  Soybean plant response rating: 2
[2]; [15]
  Plant response rating, Soybean: 5
[2]; [7]
  Plant response rating, Soybean: 0
[2]; [16]
  Soybean plant response rating: 0
[2]; Preemergence, Rate 250 g/ha
  Soybean plant response rating (0 to 10 scale): 0
[2]; [17]
  Soybean plant response rating: 0
[2]; [18]
  Plant response rating, Soybean: 5
[3]; [13]
  Redroot pigweed plant response rating: 0
[3]; [14]
  Redroot pigweed plant response rating: 0
[3]; [15]
  Plant response rating, Redroot pigweed: 2
[3]; [7]
  Plant response rating, Redroot pigweed: 0
[3]; [16]
  Redroot pigweed plant response rating: 0
[3]; Preemergence, Rate 250 g/ha
  Redroot pigweed plant response rating (0 to 10 scale): 0
[3]; [17]
  Redroot pigweed plant response rating: 0
[3]; [18]
  Plant response rating, Redroot pigweed: 0
[4]; [13]
  Morningglory plant response rating: 0
[4]; [14]
  Morningglory plant response rating: 3
[4]; [15]
  Plant response rating, Morningglory: 5
[4]; [7]
  Plant response rating, Morningglory: 0
[4]; [16]
  Morningglory plant response rating: 0
[4]; Preemergence, Rate 250 g/ha
  Morningglory plant response rating (0 to 10 scale): 0
[4]; [17]
  Morningglory plant response rating: 0
[4]; [18]
  Plant response rating, Morningglory: 5

## CC(C)N(C(=O)n1oc(=O)n(CC2CCC2)c1=O)c1ccc(Cl)cc1 [Compound 550]
[1]; [13]
  Cocklebur plant response rating: 0
[1]; [14]
  Cocklebur plant response rating: 0
[1]; [15]
  Plant response rating, Cocklebur: 2
[1]; [19]
  Cocklebur plant response rating: 0
[1]; [16]
  Cocklebur plant response rating: 0
[1]; Preemergence, Rate 250 g/ha
  Cocklebur plant response rating (0 to 10 scale): 0
[1]; [17]
  Cocklebur plant response rating: 0
[1]; [18]
  Plant response rating, Cocklebur: 1
[2]; [13]
  Soybean plant response rating: 2
[2]; [14]
  Soybean plant response rating: 2
[2]; [15]
  Plant response rating, Soybean: 3
[2]; [19]
  Soybean plant response rating: 0
[2]; [16]
  Soybean plant response rating: 0
[2]; Preemergence, Rate 250 g/ha
  Soybean plant response rating (0 to 10 scale): 0
[2]; [17]
  Soybean plant response rating: 0
[2]; [18]
  Plant response rating, Soybean: 3
[3]; [13]
  Redroot pigweed plant response rating: 0
[3]; [14]
  Redroot pigweed plant response rating: 0
[3]; [15]
  Plant response rating, Redroot pigweed: 0
[3]; [19]
  Redroot pigweed plant response rating: 7
[3]; [16]
  Redroot pigweed plant response rating: 9
[3]; Preemergence, Rate 250 g/ha
  Redroot pigweed plant response rating (0 to 10 scale): 9
[3]; [17]
  Redroot pigweed plant response rating: 10
[3]; [18]
  Plant response rating, Redroot pigweed: 0
[4]; [13]
  Morningglory plant response rating: 1
[4]; [14]
  Morningglory plant response rating: 1
[4]; [15]
  Plant response rating, Morningglory: 8
[4]; [19]
  Morningglory plant response rating: 0
[4]; [16]
  Morningglory plant response rating: 0
[4]; Preemergence, Rate 250 g/ha
  Morningglory plant response rating (0 to 10 scale): 0
[4]; [17]
  Morningglory plant response rating: 0
[4]; [18]
  Plant response rating, Morningglory: 9

## CC(C)N(C(=O)n1oc(=O)n(CCc2ccccc2)c1=O)c1ccccc1 [Compound 567]
[1]; [13]
  Cocklebur plant response rating: 0
[1]; [14]
  Cocklebur plant response rating: 0
[1]; [6]
  Plant response rating, Cocklebur: 2
[1]; [19]
  Cocklebur plant response rating: 0
[1]; [16]
  Cocklebur plant response rating: 0
[1]; Preemergence, Rate 250 g/ha
  Cocklebur plant response rating (0 to 10 scale): 0
[1]; [17]
  Cocklebur plant response rating: 0
[1]; [18]
  Plant response rating, Cocklebur: 0
[2]; [6]
  Plant response rating, Soybean: 6
[2]; [19]
  Soybean plant response rating: 0
[2]; [16]
  Soybean plant response rating: 0
[2]; Preemergence, Rate 250 g/ha
  Soybean plant response rating (0 to 10 scale): 0
[2]; [17]
  Soybean plant response rating: 0
[2]; [18]
  Plant response rating, Soybean: 4
[3]; [6]
  Plant response rating, Redroot pigweed: 0
[3]; [19]
  Redroot pigweed plant response rating: 0
[3]; [16]
  Redroot pigweed plant response rating: 0
[3]; Preemergence, Rate 250 g/ha
  Redroot pigweed plant response rating (0 to 10 scale): 8
[3]; [17]
  Redroot pigweed plant response rating: 9
[3]; [18]
  Plant response rating, Redroot pigweed: 0
[4]; [13]
  Morningglory plant response rating: 0
[4]; [14]
  Morningglory plant response rating: 4
[4]; [6]
  Plant response rating, Morningglory: 10
[4]; [19]
  Morningglory plant response rating: 0
[4]; [16]
  Morningglory plant response rating: 0
[4]; Preemergence, Rate 250 g/ha
  Morningglory plant response rating (0 to 10 scale): 0
[4]; [17]
  Morningglory plant response rating: 0
[4]; [18]
  Plant response rating, Morningglory: 4
